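Step 1: Grow cells in 96-well plates. Step 2: Expose to compound for 48 hours at 5 concentrations. Step 3: Interpolate endpoints linearly; if unreached, use highest concentration. TGI is the concentration that stops growth completely.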
Legend:
Test in all cases: DTP human tumour cell line panel, 48 h
[1] = test system: SN12C renal
[2] = test system: SW-620 colon
[3] = test system: K-562 leukemia
[4] = test system: 786-0 renal
[5] = test system: SK-OV-3 ovarian
[6] = test system: SK-MEL-28 melanoma
[7] = test system: UACC-257 melanoma
[8] = test system: IGROV1 ovarian
[9] = test system: ACHN renal
[10] = test system: HT29 colon
[11] = test system: SF-539 CNS
[12] = test system: MCF7 breast
[13] = test system: MALME-3M melanoma
[14] = test system: A549 NSCLC
[15] = test system: TK-10 renal
[16] = test system: OVCAR-3 ovarian
[17] = test system: OVCAR-4 ovarian
[18] = test system: SF-295 CNS
[19] = test system: A498 renal
[20] = test system: HOP-62 NSCLC
[21] = test system: CCRF-CEM leukemia
[22] = test system: U251 CNS
[23] = test system: NCI-H226 lung
[24] = test system: HOP-92 NSCLC
[25] = test system: HCT-15 colon
[26] = test system: CAKI-1 renal
[27] = test system: MOLT-4 leukemia
[28] = test system: T-47D breast
[29] = test system: SK-MEL-2 melanoma
[30] = test system: PC-3 prostate
[31] = test system: NCI-H460 lung
[32] = test system: SNB-75 CNS
[33] = test system: NCI/ADR-RES ovarian
[34] = test system: COLO 205 colon
[35] = test system: RXF 393 renal
[36] = test system: UO-31 renal
[37] = test system: KM12 colon
[38] = test system: HS 578T breast
[39] = test system: M14 melanoma
[40] = test system: MDA-N
[41] = test system: SK-MEL-5 melanoma
[42] = test system: DU-145 prostate
[43] = test system: UACC-62 melanoma
[44] = test system: MDA-MB-231 breast
[45] = test system: NCI-H522 lung
[46] = test system: HCT-116 colon
[47] = test system: HCC-2998 colon
[48] = test system: MDA-MB-435
[49] = test system: HL-60(TB) leukemia
[50] = test system: NCI-H23 lung
[51] = test system: SNB-19 CNS
[52] = test system: LOX IMVI melanoma
[53] = test system: SF-268 CNS
[54] = test system: EKVX NSCLC
[55] = test system: OVCAR-5 ovarian
[56] = test system: OVCAR-8 ovarian
[57] = test system: BT-549 breast
[58] = test system: RPMI-8226 leukemia

COc1c(OC)c(O)c2c(=O)c(OC)c(-c3ccc4c(c3)OCO4)oc2c1O
TGI [1]: > 100 µM | TGI [2]: > 100 µM | TGI [3]: > 100 µM | TGI [4]: > 100 µM | TGI [5]: > 100 µM | TGI [6]: > 100 µM | TGI [7]: > 100 µM | TGI [8]: > 100 µM | TGI [9]: > 100 µM | TGI [10]: > 100 µM | TGI [11]: > 100 µM | TGI [12]: > 100 µM | TGI [13]: > 100 µM | TGI [14]: > 100 µM | TGI [15]: > 100 µM | TGI [16]: > 100 µM | TGI [17]: > 100 µM | TGI [18]: > 100 µM | TGI [19]: > 100 µM | TGI [20]: > 100 µM | TGI [21]: > 100 µM | TGI [22]: > 100 µM | TGI [23]: > 100 µM | TGI [24]: > 100 µM | TGI [25]: > 100 µM | TGI [26]: > 100 µM | TGI [27]: > 100 µM | TGI [28]: > 100 µM | TGI [29]: > 100 µM | TGI [30]: > 100 µM | TGI [31]: > 100 µM | TGI [32]: > 100 µM | TGI [33]: > 100 µM | TGI [34]: > 100 µM | TGI [35]: > 100 µM | TGI [36]: > 100 µM | TGI [37]: > 100 µM | TGI [38]: > 100 µM | TGI [39]: > 100 µM | TGI [40]: > 100 µM | TGI [41]: > 100 µM | TGI [42]: > 100 µM | TGI [43]: > 100 µM | TGI [44]: > 100 µM | TGI [45]: > 100 µM | TGI [46]: > 100 µM | TGI [47]: > 100 µM | TGI [48]: > 100 µM | TGI [49]: > 100 µM | TGI [50]: > 100 µM | TGI [51]: > 100 µM | TGI [52]: > 100 µM | TGI [53]: > 100 µM | TGI [54]: > 100 µM | TGI [55]: > 100 µM | TGI [56]: > 100 µM | TGI [57]: > 100 µM

NCCNCCCCCCNC(=O)c1cccc2cc3ccccc3nc12
TGI [1]: 7.8 µM | TGI [2]: 4.78 µM | TGI [58]: 6.82 µM | TGI [3]: 6.77 µM | TGI [4]: 2.88 µM | TGI [6]: 12.3 µM | TGI [7]: 15.2 µM | TGI [8]: 17.2 µM | TGI [9]: 5.98 µM | TGI [10]: 3.77 µM | TGI [11]: 3.88 µM | TGI [12]: 5.39 µM | TGI [13]: 7.92 µM | TGI [14]: 5.63 µM | TGI [15]: 20.8 µM | TGI [16]: 7.16 µM | TGI [17]: 4.7 µM | TGI [18]: 10.6 µM | TGI [19]: 9.49 µM | TGI [20]: 4.68 µM | TGI [21]: 7.26 µM | TGI [22]: 4.15 µM | TGI [23]: 5.02 µM | TGI [24]: 9.28 µM | TGI [25]: 25.5 µM | TGI [26]: 18.5 µM | TGI [27]: 4.47 µM | TGI [28]: 21.5 µM | TGI [29]: 10.2 µM | TGI [30]: 8.79 µM | TGI [31]: 2.98 µM | TGI [32]: 11.8 µM | TGI [33]: 38.4 µM | TGI [34]: 13.2 µM | TGI [35]: 9.68 µM | TGI [36]: 17.2 µM | TGI [37]: 4.93 µM | TGI [38]: 6 µM | TGI [39]: 3.6 µM | TGI [40]: 7.13 µM | TGI [41]: 13.4 µM | TGI [42]: 2.92 µM | TGI [43]: 4.64 µM | TGI [44]: 7.13 µM | TGI [45]: 4.52 µM | TGI [46]: 6.33 µM | TGI [47]: 6.79 µM | TGI [48]: 11.9 µM | TGI [49]: 3.51 µM | TGI [50]: 6.81 µM | TGI [51]: 9.58 µM | TGI [52]: 2.96 µM | TGI [53]: 9.93 µM | TGI [54]: 20.9 µM | TGI [55]: 14 µM | TGI [56]: 5.27 µM | TGI [57]: 25.2 µM

COc1ccc2c(c1)nc1n2C(N)=Nc2ccccc2S1
TGI [1]: > 100 µM | TGI [2]: > 100 µM | TGI [58]: > 82.2 µM | TGI [3]: > 57.8 µM | TGI [4]: > 34.1 µM | TGI [5]: > 100 µM | TGI [6]: > 100 µM | TGI [7]: > 100 µM | TGI [8]: > 100 µM | TGI [9]: > 100 µM | TGI [10]: > 100 µM | TGI [11]: > 100 µM | TGI [12]: > 100 µM | TGI [13]: > 100 µM | TGI [14]: > 100 µM | TGI [15]: > 100 µM | TGI [16]: 67.8 µM | TGI [17]: > 100 µM | TGI [18]: > 100 µM | TGI [19]: > 88.4 µM | TGI [20]: > 100 µM | TGI [21]: > 23.3 µM | TGI [22]: > 100 µM | TGI [23]: > 100 µM | TGI [24]: 63.5 µM | TGI [25]: > 100 µM | TGI [26]: > 100 µM | TGI [27]: > 56.6 µM | TGI [28]: > 92.3 µM | TGI [29]: > 100 µM | TGI [30]: > 100 µM | TGI [31]: > 100 µM | TGI [32]: > 100 µM | TGI [33]: > 100 µM | TGI [34]: > 100 µM | TGI [35]: > 78.3 µM | TGI [36]: > 100 µM | TGI [37]: 34.2 µM | TGI [38]: > 100 µM | TGI [39]: > 80.6 µM | TGI [40]: > 100 µM | TGI [41]: > 61.9 µM | TGI [42]: > 100 µM | TGI [43]: > 74.4 µM | TGI [44]: > 100 µM | TGI [45]: > 100 µM | TGI [46]: > 100 µM | TGI [47]: > 100 µM | TGI [48]: > 100 µM | TGI [49]: 6.95 µM | TGI [50]: > 100 µM | TGI [51]: > 100 µM | TGI [52]: > 72.8 µM | TGI [53]: > 100 µM | TGI [54]: > 100 µM | TGI [55]: > 100 µM | TGI [56]: > 82.1 µM | TGI [57]: > 100 µM

Reference: PubChem BioAssay (NCI)
